Test results published in patent US8697837B2, “Substrate for Rpn 11 enzymatic activity” (Onyx Therapeutics, Inc., priority 2005, dated 2014).
Where no end group is shown, it is not given here. Ub4 = N-terminal tetraubiquitin moiety

What was measured:
Rpn11 (26S proteasome) [1] = target: T1, Rpn11 (26S proteasome) (Homo sapiens, UniProt O00487); experiment: SDS-PAGE assay of Ub4-peptide substrate proteolysis by 26S proteasome; type: biochemical; conditions: for inhibition of proteolysis of the substrate Ub4-peptide(29) and Ub4-peptide-C14(29) by the 26S proteasome: FIG. 1, 60 nM 26S proteasome, 2 h 37 °C, 5 mM ATPγS, 1 mM OPA, 5 μM Ub-aldehyde, SDS-PAGE
T1 construct: To date, a recombinant form of Rpn11 has not been generated
Procedure: Each peptide substrate further comprises an N-terminal ubiquitin moiety that has 4 Ub repeats (Ub4). […] 2 μg of Ub4-peptide(29) or Ub4-peptide-C14(29) were incubated with 60 nM 26S proteasome in buffer B [50 mM Tris pH 8.0; 10 mM MgCl2; 1 mM DTT; 1 mM ATP] and where indicated 5 mM ATPγS, 1 mM O-phenanthroline (OPA) and 5 μM ubiquitin aldehyde (Ub-aldehyde) in a volume of 20 μl for 2 hours at 37° C. Reactions were stopped by adding 7.5 μl loading dye and boiled at 100° C. for 5 minutes. Reactions were then loaded on an SDS-PAGE gel, reaction products were separated by electrophoresis and bands were visualized with brilliant blue.
Each peptide substrate further comprises an N-terminal ubiquitin moiety that has 4 Ub repeats (Ub4).

[2] = target: T2, chymotryptic-like activity of the 20S proteasome (Homo sapiens, UniProt P20618+P28074); experiment: Example 2 screen: liberation of AMC from LLVY-AMC; type: biochemical; conditions: substrate LLVY-AMC; method of Example 2
T2 construct: 26S proteasome purified from humans and purchased from BioMol; purchased BioMol
Procedure: (§1) 4) 26S proteasome purified from humans and purchased from BioMol;
(§2) 5 μl of compound [30 μM compound in Buffer A+1% DMSO], 5 μl of substrate [30 nM Ub4-pep-C14(29)-Oregon Green and 15 μM LLVY-AMC in Buffer A] and 5 μl enzyme [1.5 nM 26S proteasomes] were mixed in a 384 well plates and incubated at 28° C. for 75 minutes. Reactions were stopped with the addition of […] 20S inhibitor (PR-171) and 4 mM EDTA. Processing of the 20S substrate LLVY-AMC to liberate AMC was determined by measuring the AMC fluorescence [excitation at 340 nm; emission at 465 nm]. Processing of the 19S substrate Ub4-pep-C14(29)-Oregon Green to liberate pep-C14(29)-Oregon Green was determined by measuring the fluorescence polarization of Oregon Green [excitation at 485 nm; emission at 535 nm].
Modulators of the 20S proteasome activity affect liberation of AMC from LLVY-AMC (second non-ubiquitinated substrate) and affect the chymotryptic-like activity of the 20S proteasome.

19S proteasome = experiment: Example 2 screen: liberation of pep-C14(29)-Oregon Green from Ub4-pep-C14(29)-Oregon Green (fluorescence polarization); type: biochemical, human; conditions: method of Example 2
Procedure: as §1, §2
Modulators of the 19S proteasome activity affect liberation of pep-C14(29)-Oregon Green from Ub4-pep-C14(29)-Oregon Green (first ubiquitinated substrate).

[3] = target: ubiquitin or polyubiquitin chains (Homo sapiens, UniProt P0CG48); conditions: cited from earlier work
Ub4-pep-C14(29) = experiment: Intrinsic fluorescence of ubistatin A on incubation with Ub4-pep-C14(29); type: binding; conditions: 2.5 μM ubistatin A with 2.5 μM Ub4-pep-C14(29); excitation 350 nm, emission 450 nm
From the text: A test agent that binds ubiquitin can affect the binding of ubistatin A (C92) to Ub4-pep-C14(29). This can be determined by measuring the intrinsic fluorescence of ubistatin A (C92) [excitation at 350 nm; emission at 450 nm] with Ub4-pep-C14(29) in the presence or absence of a test agent, which is a competition assay between ubistatin A and the test agent for binding to the ubiquitin.

Rpn11 (26S proteasome) [4] = target: T1, Rpn11 (26S proteasome); experiment: High throughput fluorescence polarization assay of Ub4-peptide(29)-fluorescein proteolysis by 26S proteasome; type: biochemical; conditions: FIG. 5A/5B; 100 nM substrate, 10 nM 26S proteasome, 28 °C, various inhibitor concentrations
Procedure: Various concentrations (as indicated) of Ub4-peptide(29) coupled to Fluorescein-5-maleimide was incubated with 10 nM 26S proteasome in 50 mM Tris pH 8.0; 10 mM MgCl2; 1 mM DTT; 1 mM ATP at 28° C., and the liberation of peptide(29)-fluorescein was measured by fluorescence polarization (excitation at 485 nm; emission at 510 nm).
FIG. 5A illustrates a high throughput (HTP) FP assay that detects O-phenanthroline inhibition of Rpn11 activity. […] 100 nM Ub4-peptide coupled to fluorescein-5-maleimide was incubated with 10 nM 26S proteasome in 50 mM Tris pH 8.0; 10 mM MgCl2; 1 mM DTT; 1 mM ATP at 28° C. and the liberation of peptide was measured by fluorescence polarization (excitation at 485 nm; emission at 510 nm) in the presence of various concentrations of o-phenanthroline (as indicated).
FIG. 5B illustrates that Rpn11 enzymatic activity is unaffected by the presence of a 20S proteasome inhibitor in the HTP FP assay using a peptide substrate of the application. […] 100 nM Ub4-peptide coupled to fluorescein-5-maleimide was incubated with 10 nM 26S proteasome in 50 mM Tris pH 8.0; 10 mM MgCl2; 1 mM DTT; 1 mM ATP at 28° C. and the liberation of peptide was measured by fluorescence polarization (excitation at 485 nm; emission at 510 nm) in the presence of various concentrations of 20S proteasome inhibitor (as indicated).

Rpn11 = Rpn11 (Saccharomyces cerevisiae, UniProt P43588); conditions: purified 26S proteasome complex; cited from earlier work
[5] = FIG. 2, 60 nM 26S proteasome from source A
[6] = FIG. 2, 60 nM 26S proteasome from source B

Rpn11, sequence (P43588 whole entry): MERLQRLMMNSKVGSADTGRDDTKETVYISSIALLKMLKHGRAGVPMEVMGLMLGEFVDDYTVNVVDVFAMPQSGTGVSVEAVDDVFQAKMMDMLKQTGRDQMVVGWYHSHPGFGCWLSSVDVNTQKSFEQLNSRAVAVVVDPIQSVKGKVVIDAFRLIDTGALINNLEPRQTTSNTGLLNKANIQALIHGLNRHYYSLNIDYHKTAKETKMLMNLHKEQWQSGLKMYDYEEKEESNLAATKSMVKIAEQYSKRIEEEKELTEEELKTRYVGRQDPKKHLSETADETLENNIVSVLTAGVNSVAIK

Compound: Nc1ncnc2c1ncn2[C@@H]1O[C@H](COP(=O)(O)OP(=O)(O)OP(O)(O)=S)[C@@H](O)[C@H]1O [ATPγS]
- inhibition of proteolysis of the substrate Ub4-peptide(29) and Ub4-peptide-C14(29) by the 26S proteasome (Rpn11 (26S proteasome) [1]): inhibited
- inhibition of proteolysis of the substrate Ub4-peptide-C14(14) (Rpn11 (26S proteasome) [1]; [5]): inhibited
- inhibition of proteolysis of the substrate Ub4-peptide-C14(14) (Rpn11 (26S proteasome) [1]; [6]): not

Compound: COc1cccc(OC)c1C(=O)N1CCC(c2nc(-c3ccc(Br)cc3)no2)CC1 [Compound 1]
- effect on the chymotryptic-like activity of the 20S proteasome [2]: affect

Compound: COc1cccc(OC)c1C(=O)N1CCC(c2nc(-c3ccc(C)cc3)no2)CC1 [Compound 2]
- effect on the chymotryptic-like activity of the 20S proteasome [2]: affect

Compound: CC(C)c1cc(OC(=O)c2cc(C(F)(F)F)cc(C(F)(F)F)c2)n(-c2ccc([N+](=O)[O-])cc2)n1 [Compound 3]
- effect on the chymotryptic-like activity of the 20S proteasome [2]: affect

Compound: O=C(c1ccc(CSc2ccc(-c3ccc(-c4ccccc4)cc3)nn2)o1)N1CCCC1 [Compound 4]
- processing of the substrate Ub4-pep-C14(29)-Oregon Green by the 19S proteasome (19S proteasome): prevents

Compound: O=C(Nc1ccc(/C=C/c2ccc(NC(=O)c3cc(S(=O)(=O)O)c4cccnc4c3O)cc2S(=O)(=O)O)c(S(=O)(=O)O)c1)c1cc(S(=O)(=O)O)c2cccnc2c1O [Ubistatin A]
- intrinsic fluorescence detected from Compound 92 on binding to a protein substrate [3]: increases
- intrinsic fluorescence of ubistatin A (C92) (Ub4-pep-C14(29)): increases several fold

Compound: c1cnc2c(c1)ccc1cccnc12 [o-phenanthroline, 1,10-phenanthroline]
- inhibition of proteolysis of the substrate Ub4-peptide(29) and Ub4-peptide-C14(29) by the 26S proteasome (Rpn11 (26S proteasome) [1]): inhibited
- inhibition of proteolysis of the substrate Ub4-peptide-C14(14) (Rpn11 (26S proteasome) [1]; [5]): inhibited
- inhibition of proteolysis of the substrate Ub4-peptide-C14(14) (Rpn11 (26S proteasome) [1]; [6]): not
- effect on kinetics of Ub4-peptide(29)-fluorescein proteolysis by the 26S proteasome (Rpn11 (26S proteasome) [4]): affects

Compound: Ub4-peptide-C14(14): peptide of SEQ ID NO:15 with S14 changed to C14 and an N-terminal Ub4 moiety; Rpn11 substrate (Ub4-MQIFVKTLRANSSC)
- effect of changing S14 to C14 on substrate's ability to be recognized and cleaved by Rpn11 (Rpn11 (26S proteasome) [1]; FIG. 2, SEQ ID NO:15, N-terminal Ub4): does not alter

Compound: ubiquitin aldehyde
- inhibition of proteolysis of the substrate Ub4-peptide(29) and Ub4-peptide-C14(29) by the 26S proteasome (Rpn11 (26S proteasome) [1]): not
- sensitivity of the deubiquitinating activity associated with Rpn11 (Rpn11): insensitivity

Compound: ubiquitin vinylsulphone
- sensitivity of the deubiquitinating activity associated with Rpn11 (Rpn11): insensitivity
